In ChEMBL document CHEMBL6074649, “An insight into recent developments in imidazole based heterocyclic compounds as anticancer agents: Synthesis, SARs, and mechanism of actions” (Eur J Med Chem, 2024):

Columns and labels:
HCT-116 [1] = test: Cytotoxicity against human HCT-116 cells after 24 hrs by MTT assay; format: functional, cell-based; details: HCT-116, 24 h
HepG2 [2] = test: Cytotoxicity against human HepG2 cells after 24 hrs by MTT assay; format: functional, cell-based; details: HepG2, 24 h
[3] = Cytotoxicity against human MCF-10A cells measured after 24 hrs by MTT assay; format: toxicity, cell-based
MCF7 [4] = test: Cytotoxicity against human MCF7 cells after 24 hrs by MTT assay; format: functional, cell-based; details: MCF7, 24 h
PC-3 = test: Anticancer activity against human PC-3 cells; format: functional, cell-based
HepG2 [5] = test: Anticancer activity against human HepG2 cells; format: functional, cell-based
DU-145 = test: Anticancer activity against human DU-145 cells; format: functional, cell-based
MCF7 [6] = test: Anticancer activity against human MCF7 cells; format: functional, cell-based
A549 [7] = test: Cytotoxicity against human A549 cells assessed as reduction in cell growth; format: functional, cell-based
BXPC-3 = test: Antiproliferative activity against human BXPC-3 assessed as reduction in cell growth; format: functional, cell-based
PANC-1 = test: Antiproliferative activity against human PANC-1 cells by MTT assay; format: functional, cell-based
HT-29 [8] = test: Antiproliferative activity against human HT-29 cells assessed as reduction in cell growth by MTT assay; format: functional, cell-based
A549 [9] = test: Antiproliferative activity against human A549 cells assessed as reduction in cell growth by MTT assay; format: functional, cell-based
MCF7 [10] = test: Antiproliferative activity against human MCF7 cells assessed as reduction in cell growth by MTT assay; format: functional, cell-based
[11] = Antiproliferative activity against mouse 4T1-Luc cells; format: functional, cell-based
MDA-MB-231 = test: Antiproliferative activity against human MDA_MB-231 cells; format: functional, cell-based
RS4-11 = test: Antiproliferative activity against human RS4-11 cells assessed as reduction in cell viability incubated for 72 hrs by MTT assay; format: functional, cell-based; details: RS4-11, 72 h
MCF7 [12] = test: Antiproliferative activity against human MCF7 cells assessed as reduction in cell viability incubated for 72 hrs by MTT assay; format: functional, cell-based; details: MCF7, 72 h
A549 [13] = test: Antiproliferative activity against human A549 cells assessed as reduction in cell viability incubated for 72 hrs by MTT assay; format: functional, cell-based; details: A549, 72 h
HL-60 [14] = test: Antiproliferative activity against human HL-60 cells assessed as reduction in cell viability incubated for 72 hrs by MTT assay; format: functional, cell-based; details: HL-60, 72 h
HeLa [15] = test: Antiproliferative activity against human HeLa cells assessed as reduction in cell viability incubated for 72 hrs by MTT assay; format: functional, cell-based
HT-29 [16] = test: Antiproliferative activity against human HT-29 cells assessed as reduction in cell viability incubated for 72 hrs by MTT assay; format: functional, cell-based; details: HT-29, 72 h
Tubulin = test: Inhibition of tubulin polymerization (unknown origin); format: protein-complex assay, Homo sapiens
Jurkat = test: Antiproliferative activity against human Jurkat cells assessed as reduction in cell viability incubated for 72 hrs by MTT assay; format: functional, cell-based
HCT-116 [17] = test: Cytotoxicity against human HCT-116 cells assessed as reduction in cell viability incubated for 24 hrs by MTT assay; format: functional, cell-based; details: HCT-116, 24 h
A549 [18] = test: Cytotoxicity against human A549 cells; format: functional, cell-based
MCF7 [19] = test: Cytotoxicity against human MCF7 cells assessed as reduction in cell growth incubated for 24 hrs by MTT assay; format: functional, cell-based; details: MCF7, 24 h
MCF7 [20] = test: Antiproliferative activity against human MCF7 cells assessed as reduction in cell growth incubated for 24 hrs by MTT assay; format: functional, cell-based; details: MCF7, 24 h
[21] = Antiproliferative activity against human MCF7/MX cells assessed as reduction in cell growth incubated for 24 hrs by MTT assay; format: functional, cell-based
[22] = Cytotoxicity against HUVEC cells; format: toxicity, cell-based; details: human
HL-60 [23] = test: Cytotoxicity against human HL-60 cells assessed as reduction in cell growth incubated for 24 hrs by MTT assay; format: functional, cell-based; details: HL-60, 24 h
A549 [24] = test: Antiproliferative activity against human A549 cells assessed as reduction in cell growth incubated for 24 hrs by MTT assay; format: functional, cell-based; details: A549, 24 h
HepG2 [25] = test: Antiproliferative activity against human HepG2 cells assessed as reduction in cell growth incubated for 24 hrs by MTT assay; format: functional, cell-based; details: HepG2, 24 h
Caco-2 = test: Cytotoxicity against human Caco-2 cells assessed as reduction in cell growth incubated for 24 hrs by MTT assay; format: functional, cell-based; details: Caco-2, 24 h
HCT-116 [26] = test: Cytotoxicity against human HCT-116 cells assessed as reduction in cell growth incubated for 24 hrs by MTT assay; format: functional, cell-based; details: HCT-116, 24 h
HeLa [27] = test: Cytotoxicity against human HeLa cells assessed as reduction in cell growth incubated for 24 hrs by MTT assay; format: functional, cell-based
MCF7 [28] = test: Antiproliferative activity against MCF7 cells assessed as reduction in cell growth by MTT assay; format: functional, cell-based; details: Homo sapiens
A549 [29] = test: Antiproliferative activity against A549 cells assessed as reduction in cell growth by MTT assay; format: functional, cell-based; details: Homo sapiens
NCI-H460 = test: Antiproliferative activity against human NCI-H460 cells assessed as reduction in cell growth by MTT assay; format: functional, cell-based
[30] = Antiproliferative activity against MRC5 cells assessed as reduction in cell growth by MTT assay; format: toxicity, cell-based; details: human
NCI-H1299 = test: Antiproliferative activity against human NCI-H1299 cells assessed as reduction in cell growth by MTT assay; format: functional, cell-based
HepG2 [31] = test: Antiproliferative activity against human HepG2 cells; format: functional, cell-based
[32] = Inhibition of TK (unknown origin); design: species or system Homo sapiens
HCT-116 [33] = test: Anticancer activity against human HCT-116 cells; format: functional, cell-based
SNU-C1 = test: Anticancer activity against human SNU-C1 cells; format: functional, cell-based
HT-29 [34] = test: Anticancer activity against human HT-29 cells; format: functional, cell-based
RKO = test: Anticancer activity against human RKO cells; format: functional, cell-based
DLD-1 = test: Anticancer activity against human DLD-1 cells; format: functional, cell-based
SW480 = test: Anticancer activity against human SW480 cells; format: functional, cell-based
COLO 320 = test: Anticancer activity against human COLO 320 cells; format: functional, cell-based
SW837 = test: Anticancer activity against human SW837 cells; format: functional, cell-based

CC(=O)O[C@@]12CO[C@@H]1C[C@H](O)[C@@]1(C)C(=O)[C@H](O)C3=C(C)[C@@H](OC(=O)[C@H](O)[C@@H](NC(=O)OC(C)(C)C)c4ccccc4)C[C@@](O)([C@@H](OC(=O)c4ccccc4)[C@H]21)C3(C)C [DOCETAXEL ANHYDROUS]
IC50 (HCT-116 [1]): 14 µM
IC50 (HepG2 [2]): 8.13 µM
IC50 at 24 h [3]: 33.2 µM
IC50 (MCF7 [4]): 11.1 µM

CCOC(=O)N1CCN(c2c([N+](=O)[O-])nc(CC)n2CC)CC1
IC50 (PC-3): 49.6 µM
IC50 (HepG2 [5]): 5.6 µM
IC50 (DU-145): 42.2 µM
IC50 (MCF7 [6]): 29.6 µM

COc1ccc2cc([C@H](C)C3=NC(Cc4ccccc4)C(=O)N3/N=C/c3ccc(N(C)C)cc3)ccc2c1 (stereo partly specified)
IC50 (A549 [7]): 9.4 µM
IC50 (BXPC-3): 18.3 µM

COc1ccccc1-c1nc(-c2ccccc2)c(-c2ccccc2)n1-c1ccc(S(N)(=O)=O)cc1
IC50 (PANC-1): 2.2 µM
IC50 (HT-29 [8]): 2.4 µM
IC50 (A549 [9]): 2.4 µM
IC50 (MCF7 [10]): 2.1 µM

C#Cc1cccc(Nc2ncnc3cc(OCCOC)c(OCCOC)cc23)c1 [ERLOTINIB]
IC50 (A549 [7]): 25.2 µM
IC50 (BXPC-3): 9.8 µM

Cc1[nH]c(SCc2c(F)cccc2F)nc1Cc1ccccc1
IC50 [11]: 6.66 µM
IC50 (MDA-MB-231): 9.5 µM

Cc1nc([N+](=O)[O-])c(N2CCN(CCCBr)CC2)n1Cc1ccccc1
IC50 (PC-3): 48.6 µM
IC50 (HepG2 [5]): 32.1 µM
IC50 (DU-145): 53.7 µM
IC50 (MCF7 [6]): 46.2 µM

COc1ccc(-c2c[nH]c(=S)n2/N=C/c2ccccc2O)cc1
IC50 (HCT-116 [1]): 3.99 µM
IC50 (HepG2 [2]): 1.3 µM
IC50 at 24 h [3]: 27.8 µM
IC50 (MCF7 [4]): 1.07 µM

CCOc1ccc(-c2nccn2-c2cc(OC)c(OC)c(OC)c2)cc1Cl
IC50 (RS4-11): 0.0012 µM
IC50 (MCF7 [12]): 0.0007 µM
IC50 (A549 [13]): 0.00057 µM
IC50 (HL-60 [14]): 0.0018 µM
IC50 (HeLa [15]): 0.0038 µM
IC50 (HT-29 [16]): 0.0004 µM
IC50 (Tubulin): 0.87 µM
IC50 (Jurkat): 0.0009 µM

COc1ccc(/C=C\c2cc(OC)c(OC)c(OC)c2)cc1O [COMBRETASTATIN A4]
IC50 (RS4-11): 0.37 µM
IC50 (HCT-116 [17]): 2.63 µM
IC50 (MCF7 [12]): 0.005 µM
IC50 (A549 [18]): 0.048 µM
IC50 (MCF7 [19]): 3.57 µM
IC50 (MCF7 [20]): 0.43 µM
IC50 (A549 [13]): 3.1 µM
IC50 [21]: 1.49 µM
IC50 [22]: 119 µM
IC50 (HT-29 [16]): 0.18 µM
IC50 (HL-60 [23]): 0.77 µM
IC50 (A549 [24]): 0.86 µM
IC50 (HepG2 [25]): 0.63 µM
IC50 (Jurkat): 0.0008 µM

O=C(O)c1ccc(C(=O)NCn2cc(CSc3nc(-c4ccccc4)c(-c4ccccc4)n3-c3ccccc3)nn2)cc1
IC50 (Caco-2): 4.67 µM
IC50 (HCT-116 [26]): 16.8 µM
IC50 (HeLa [27]): 6.87 µM

Cc1[nH]c(SCc2ccccc2)nc1Cc1ccccc1
IC50 [11]: 8.03 µM
IC50 (MDA-MB-231): 8.26 µM

NS(=O)(=O)c1ccc(-n2c(-c3ccccc3Br)nc(-c3ccccc3)c2-c2ccccc2)cc1
IC50 (PANC-1): 2.5 µM
IC50 (HT-29 [8]): 3.1 µM
IC50 (A549 [9]): 2.8 µM
IC50 (MCF7 [10]): 2.7 µM

CN(C)CCCOc1ccc(-c2nc(-c3ccc(Br)o3)[nH]c2-c2ccc(OCCCN(C)C)cc2)cc1
IC50 (MCF7 [28]): 6.91 µM
IC50 (A549 [29]): 5.82 µM
IC50 (NCI-H460): 4.16 µM
IC50 [30]: 8.42 µM
IC50 (NCI-H1299): < 0.1 µM

S=c1[nH]c(-n2nnc3ccccc32)cn1-c1ccc(Cl)cc1Cl
IC50 (HCT-116 [17]): 0.24 µM
IC50 (MCF7 [19]): 0.58 µM
IC50 [22]: 13.6 µM
IC50 (HL-60 [23]): 0.4 µM

CN(C)CCCOc1ccc(-c2nc(-c3ccc([N+](=O)[O-])o3)[nH]c2-c2ccc(OCCCN(C)C)cc2)cc1
IC50 (MCF7 [28]): 6.75 µM
IC50 (A549 [29]): 6.71 µM
IC50 (NCI-H460): 6.95 µM
IC50 [30]: 7.1 µM
IC50 (NCI-H1299): < 0.1 µM

CCOC(=O)c1nn(-c2ccc(Cl)cc2)/c(=N\NC2=NC(c3ccccc3)(c3ccccc3)C(=O)N2)s1
IC50 (HepG2 [31]): 0.72 µM

COc1cccc2c1C=C(c1ncc(-c3ccc(OCc4ccccc4)cc3)[nH]1)CO2
IC50 [32]: 4.73 µM
IC50 (HCT-116 [33]): 0.37 µM
IC50 (SNU-C1): 0.37 µM
IC50 (HT-29 [34]): 0.37 µM
IC50 (RKO): 0.37 µM
IC50 (DLD-1): 0.37 µM
IC50 (SW480): 0.37 µM
IC50 (COLO 320): 0.37 µM
IC50 (SW837): 0.37 µM
